This is an account of results in patent US20180030080A1, “Phosphoramidate nucleoside prodrug for treating viral diseases and cancer, processes for their preparation and their use” (ASAVI, LLC, priority 2016, published 2018).

Where two headings read alike, the source gives them in different places.

For data set [1] the following is noted: in the clinic; cited from earlier work.
Data set [2] concerns HCV replicon. The note with it: cited from earlier work.
In data set [3] the test system is HBV wild-type. The conditions noted are these: cited from earlier work.
Data set [4] concerns HCV replicon gT3a. Put plainly: HCV replicon assay, genotype gT3a. The note with it: Hepatitis C virus, mean. It counts as cell-based. How it is done: (§1) Anti-HCV activity (EC50) and cytotoxicity (CC50) of prodrugs of general formula 1. The HCV replicon assay was used to determine the antiviral activity of chemotherapeutic agents of general formula 1 (test compounds). Sovaldi (PSI-7977) was used as the reference drug. The test cell line used in the HCV Replicon Assay was the human hepatoma cell line Huh7 incorporating the HCV replicons synthesized by an outside vendor. 96-well plates were seeded with cells at a density of 7.5×10^3 cells per well in 50 μl of assay media. The compound stock solution was made up freshly in an assay medium (DMEM 1×, Cellgro; cat. #10-013-CV) as a 2× stock. A total of 11 serial 3-fold dilutions of test compounds were prepared from the 2× stock in the assay media ranging from 20 nM-0.2 pM final concentrations. At least 4 hours after seeding the cells, compound treatment was initiated by adding 50 μl of compound dilution to the plates. […] The final DMSO concentration was 0.5%. Cells and inhibitors were incubated for 3 days at 37° C./5% CO2. The media was removed from the plates by gentle tapping. The cells were fixed with 100 μl 1:1 acetone:methanol for 1 minute, washed three times with PBS buffer, and then blocked with 150 μl/well 10% Fetal Bovine Serum (FBS) in PBS for 1 hour at room temperature. The cells were then washed three times with PBS buffer and incubated with 100 μl/well anti-hepatitis C core mAb (Affinity BioReagents; cat. # MA1-080, 1 mg/ml stock diluted 1:4,000 in 10% FBS-PBS) for 2 hours at 37° C. Then, the cells were washed three times with PBS and incubated with 100 μl/well HRP-Goat Anti-Mouse antibody (diluted 1:3.500 in 10% FBS-PBS) for 1 hour at 37° C. […] The reaction was stopped with 2N H2SO4 (100 μl/well), and the absorbance was measured at A490 X on a Victor^3 V 1420 multilabel counter (Perkin Elmer). The EC50 values were calculated for test compounds from the resulting best-fit equations determined by Xlfit software (Table 1).
For orientation: Replicon systems follow genome replication, usually without infectious particles.

Data set [5] relates to HCV replicon gT4a. As to the kind of experiment: HCV replicon assay, genotype gT4a. In kind it is cell-based. The note with it: Hepatitis C virus, mean. How it is done: as §1
The subject of data set [6] is HCV replicon gT1a. As to the kind of experiment: HCV replicon assay, genotype gT1a. The conditions noted are these: Hepatitis C virus, mean. In kind it is cell-based. How it is done: as §1
In data set [7] the test system is HCV replicon gT1b. Put plainly: HCV replicon assay, genotype gT1b. It counts as cell-based. The note with it: Hepatitis C virus. How it is done:
Anti-HCV activity (EC50) and cytotoxicity (CC50) of prodrugs of general formula 1. The HCV replicon assay was used to determine the antiviral activity of chemotherapeutic agents of general formula 1 (test compounds). Sovaldi (PSI-7977) was used as the reference drug. The test cell line used in the HCV Replicon Assay was the human hepatoma cell line Huh7 incorporating the HCV replicons synthesized by an outside vendor. 96-well plates were seeded with cells at a density of 7.5×10^3 cells per well in 50 μl of assay media. The compound stock solution was made up freshly in an assay medium (DMEM 1×, Cellgro; cat. #10-013-CV) as a 2× stock. A total of 11 serial 3-fold dilutions of test compounds were prepared from the 2× stock in the assay media ranging from 20 nM-0.2 pM final concentrations. At least 4 hours after seeding the cells, compound treatment was initiated by adding 50 μl of compound dilution to the plates. […] The final DMSO concentration was 0.5%. Cells and inhibitors were incubated for 3 days at 37° C./5% CO2. The media was removed from the plates by gentle tapping. The cells were fixed with 100 μl 1:1 acetone:methanol for 1 minute, washed three times with PBS buffer, and then blocked with 150 μl/well 10% Fetal Bovine Serum (FBS) in PBS for 1 hour at room temperature. The cells were then washed three times with PBS buffer and incubated with 100 μl/well anti-hepatitis C core mAb (Affinity BioReagents; cat. # MA1-080, 1 mg/ml stock diluted 1:4,000 in 10% FBS-PBS) for 2 hours at 37° C. Then, the cells were washed three times with PBS and incubated with 100 μl/well HRP-Goat Anti-Mouse antibody (diluted 1:3.500 in 10% FBS-PBS) for 1 hour at 37° C. The cells were then washed three times with PBS and developed with an OPD solution, 100 μl/well (1 OPD tablet+12 ml citrate/phosphate buffer+5 μl 30% H2O2 per plate), for 30 minutes in the dark at room temperature. The reaction was stopped with 2N H2SO4 (100 μl/well), and the absorbance was measured at A490 X on a Victor^3 V 1420 multilabel counter (Perkin Elmer). The EC50 values were calculated for test compounds from the resulting best-fit equations determined by Xlfit software (Table 1).

The test system of data set [8] is HCV replicon gT5a. Put plainly: HCV replicon assay, genotype gT5a. In kind it is cell-based. The conditions noted are these: Hepatitis C virus, mean. How it is done:
as §1

Data set [9] has as its system HCV replicon gT2a. Put plainly: HCV replicon assay, genotype gT2a. In kind it is cell-based. The note with it: Hepatitis C virus, mean. How it is done: Anti-HCV activity (EC50) and cytotoxicity (CC50) of prodrugs of general formula 1. The HCV replicon assay was used to determine the antiviral activity of chemotherapeutic agents of general formula 1 (test compounds). Sovaldi (PSI-7977) was used as the reference drug. The test cell line used in the HCV Replicon Assay was the human hepatoma cell line Huh7 incorporating the HCV replicons synthesized by an outside vendor. 96-well plates were seeded with cells at a density of 7.5×10^3 cells per well in 50 μl of assay media. The compound stock solution was made up freshly in an assay medium (DMEM 1×, Cellgro; cat. #10-013-CV) as a 2× stock. A total of 11 serial 3-fold dilutions of test compounds were prepared from the 2× stock in the assay media ranging from 20 nM-0.2 pM final concentrations. At least 4 hours after seeding the cells, compound treatment was initiated by adding 50 μl of compound dilution to the plates. The final concentrations of compound therefore ranged from 10 nM to 0.1 pM when diluted 1:1 in culture media. The final DMSO concentration was 0.5%. Cells and inhibitors were incubated for 3 days at 37° C./5% CO2. The media was removed from the plates by gentle tapping. The cells were fixed with 100 μl 1:1 acetone:methanol for 1 minute, washed three times with PBS buffer, and then blocked with 150 μl/well 10% Fetal Bovine Serum (FBS) in PBS for 1 hour at room temperature. The cells were then washed three times with PBS buffer and incubated with 100 μl/well anti-hepatitis C core mAb (Affinity BioReagents; cat. # MA1-080, 1 mg/ml stock diluted 1:4,000 in 10% FBS-PBS) for 2 hours at 37° C. Then, the cells were washed three times with PBS and incubated with 100 μl/well HRP-Goat Anti-Mouse antibody (diluted 1:3.500 in 10% FBS-PBS) for 1 hour at 37° C. […] The reaction was stopped with 2N H2SO4 (100 μl/well), and the absorbance was measured at A490 X on a Victor^3 V 1420 multilabel counter (Perkin Elmer). The EC50 values were calculated for test compounds from the resulting best-fit equations determined by Xlfit software (Table 1).

The test system of data set [10] is HIV. The note with it: most potent and least cytotoxic analog; cited from earlier work.
Data set [11] deals with HIV. The note with it: in PBMCs, relative to TFV; cited from earlier work.
The test system of data set [12] is HBV lamivudine-entecavir resistant clone (L180M+M204V+S202G). The note with it: resistant mutant (L180M+M204V+S202G); cited from earlier work.
Data set [13] deals with wild-type HIV-1. The note with it: cited from earlier work.
Data set [14] has as its system Huh7. As to the kind of experiment: Cytotoxicity in Huh7 cells (ATPLite). In kind it is cell-based, human. The note with it: at a concentration of 100 μM. Here is the method: The cytotoxicity of the test compounds was studied in parallel using the same cell line, Huh7. Cell viability was determined using the ATPLite Kit (Perkin-Elmer, Boston, USA), according to manufacturer's instructions. 96-well black/transparent bottom plates were seeded with cells at a density of 7.5×10^3 cells per well in 50 μl medium. After 18 hours, compound treatment was initiated by adding 50 μl of compound dilution into the plates. Each compound dilution was tested in triplicates. The cells and inhibitors were then incubated for 96 hours at 37° C./5% CO2. The plates were washed twice with PBS (0.2 ml/well), and then lysed by adding lysis buffer, 0.05 ml/well (all reagents were included with the ATPLite Kit). After rocking for 5 min on a rocking platform, substrate buffer was added (0.05 ml/well). After additional 5-min incubation, the plates were kept in dark for 10 min, and the luminescence was read using TopCount NXT (Packard, Perkin Elmer). CC50 values for all test compounds were determined using XLfit 4.1 software.

For data set [15] the following is noted: 28-day toxicity studies in multiple species; cited from earlier work.
In data set [16] the test system is xenograft models of human pancreatic cancer. The conditions noted are these: in vivo; cited from earlier work.
The mark [17] stands for this setting: GT1B, read-out: IC50 HCV gT1b 10% FBS (mean).
[18] abbreviates: gT1b, 40% NHS, mean, read-out: IC50 HCV gT1b 40% NHS (mean).

In general, EC50 refers to the concentration at which the effect is half-maximal. Consider `COc1nc(N)nc2c1ncn2[C@@H]1O[C@H](COP(=O)(N[C@@H](C)C(=O)OCC(C)(C)C)Oc2cccc3ccccc23)[C@@H](O)[C@@]1(C)O` (stereo partly shown) [INX-08189], for which the cardiovascular toxicity result in data set [1] was “severe cardiovascular toxicity”. Further, the EC50 in data set [2] was 10 nM.

With “2′-fluoro-6′-methylene-carbocyclic adenosine [FMCA]”, the EC50 in data set [3] (HBV wild-type) is 550 nM.

As a reminder, the IC50 is the concentration that gives 50% inhibition. As for `CC(C)OC(=O)[C@H](C)OC(=O)[C@H](C)NP(=O)(OC[C@H]1O[C@@H](n2ccc(=O)[nH]c2=O)[C@](C)(F)[C@@H]1O)Oc1ccccc1` (stereo partly drawn) [1.2(2), (S)-1-isopropyloxycarbonyl-ethyl (S)-2-{[(2R,3R,4R,5R)-5-(2,4-dioxo-3,4-dihydro-2H-pyrimidin-1-yl)-4-fluoro-3-hydroxy-4-methyl-tetrahydro-furan-2-ylmethoxy]-phenoxy-phosphorylamino}-propanoate], the IC50 in [4] was found to be 69 nM; in [5], 80 nM; in data set [6], 57 nM; in data set [7] (setting [17]), 18 nM; in [7] (setting [18]), 34 nM; in data set [8], 185 nM. The IC50 in data set [9] was determined as 24 nM.

For `CCOC(=O)[C@H](C)N[P@](=O)(OC[C@@H]1OC[C@H](n2cnc3c(NC4CC4)ncnc32)O1)Oc1ccccc1` [dioxolane-A mono-phosphoramidate], the EC50 in [10] is 86 nM.

For `CC(C)OC(=O)[C@H](C)N[P@](=O)(CO[C@H](C)Cn1cnc2c(N)ncnc21)Oc1ccccc1` [TAF, (S)-Isopropyl 2-(((S)-((((R)-1-(6-amino-9H-purin-9-yl)propan-2-yl)oxy)methyl)(phenoxy)-phosphoryl)amino)propanoate], the “more potent than TFV” value in [11] is reported as 400 fold.

With “2′-Fluoro-6′-methylene-carbocyclic adenosine phosphoramidate [5′-phosphoramidate of FMCA]”, in data set [3] (against both the wild-type and resistant mutant), the “more potent than FMCA” value is recorded as 10 fold. The EC50 in data set [12] is 54 nM.

As for `CCOC(=O)[C@H](C)N[P@](=O)(OC[C@@H]1OC[C@H](n2cc(C)c(=O)[nH]c2=O)O1)Oc1ccc(Br)cc1` [DOT-phosphoramidate, D-dioxolane-thymine 5′-(4-bromophenylethyloxy-L-alanyl-phosphate)], in [13], the “more potency relative to DOT” value is 75 fold.

Take `CC(C)OC(=O)[C@H](C)NP(=O)(OC[C@H]1O[C@@H](n2ccc(=O)[nH]c2=O)[C@](C)(F)[C@@H]1O)Oc1ccccc1` (stereo partly shown) [PSI-7851, reference compound]: the IC50 was found to be 152 nM in [4]; 350 nM in data set [5]; 103 nM in data set [6]; 61 nM in data set [7] (setting [17]); 80 nM in data set [7] (setting [18]); 395 nM in data set [8]. The compound further returned an IC50 in [9] of 39 nM. The same compound came in with a Cell death in data set [14] of 31%.

With `CC(C)OC(=O)[C@H](C)N[P@](=O)(CO[C@@H]1C=C(F)C(n2cnc3c(N)ncnc32)O1)Oc1ccccc1` (stereo partly shown) [GS-9131], in [15], the renal findings result is listed as “no significant renal findings”.

With `C[C@H](NP(=O)(OC[C@H]1O[C@@H](n2ccc(N)nc2=O)C(F)(F)[C@@H]1O)Oc1ccccc1)C(=O)OCc1ccccc1` (stereo partly shown) [NUC-1031, Gemcitabin-5′-phosphoramidate], the tumor volume entry in data set [16] is “significantly reduced tumor volume”.
